Laboratory results: patent US6518288B2, “Amlodipine fumarate” (Synthon BV, priority 2000, dated 2003)

Experiment: Solubility of amlodipine hemifumarate in water and organic solvents (descriptive statement)
Assay type: physicochemical
Details: in water and most commonly used organic solvents

With Amlodipine Hemifumarate as the substance, how does the solubility read?
Its solubility is “insoluble or only sparingly soluble”.
